Our source for the melting point values is a melting point compilation (Tetko et al.; mined from patent text by program, amines drawn as free bases though some values may be those of a salt).

A word on the melting point: it is the temperature of the solid-liquid transition. Compound `CC(C)(C)OC(=O)NC(Cc1ccccc1)C(O)C(O)C(Cc1ccccc1)NC(=O)OC(C)(C)C` (stereo not drawn) came in with a melting point of 208 to 212 °C. Next, `CC1CCN(c2cc(F)cc(C(=O)Nc3ccc(OCc4n[nH]c(=O)n4-c4ccccc4)c4ccccc34)c2)CC1`: 140 to 143 °C. The result for `NCCCNc1ccc(Cl)nn1` reads 125 °C; that for `COc1ccc(N(C(=O)OC(C)(C)C)S(=O)(=O)c2ccc(F)cc2)cc1OC`, 99 to 102 °C; that for `C(=NNc1cc(N2CCOCC2)nc(OCCc2ccccn2)n1)c1c[nH]c2ccccc12`, 160 to 165 °C.

The compound `O=c1[nH]c(=O)n(C2CC(F)C(COC(c3ccccc3)(c3ccccc3)c3ccccc3)O2)cc1C#CI` (stereo not drawn) showed a melting point of 73 °C.

For the compound `CC(=O)CCCCOCCCc1ccc(N2CCCC2)cc1`, the melting point lay within 30 to 31 °C.

`Brc1ccc(-c2cc(-c3ccc(Br)cc3)cc(-c3ccc(Br)cc3)c2)cc1` displayed a melting point of 254 to 255 °C. Compound `CC(=O)Oc1cccc(-c2nc(=O)n(C(C)C)c3cc(C)ccc23)c1` showed a melting point of 148 to 150 °C. Next, `COC(=O)c1ccc(S(C)(=O)=O)c(-c2ccon2)c1C`: 87 to 89 °C; `CNS(=O)(=O)c1ccccc1Nc1nc(Nc2ccc3c(c2)CNC(=O)CCN3)ncc1Cl`: 197 to 198 °C; `COc1cc(Br)c2c(c1OC)C(=O)CC2`: 180 to 182 °C. Next, `Nc1c2c(=O)[nH]c(C(F)(F)F)nc2nn1-c1ccccc1`: 267 to 269 °C.

`CCOCc1nc2c(N)nc3ccccc3c2n1CCCON=C(C)C` showed a melting point of 109 to 111 °C. As for `CC(C)CC(NC(=O)Cc1cccc2ccccc12)C(=O)NC(Cc1ccccc1)C(=O)CSCc1ccco1` (stereo not drawn), the melting point was in the range of 143 to 146 °C. Next, `CCC12CCC3C4CCC(OC)=CC4=CCC3C1C=CC2=O` (stereo not drawn): 159 to 161 °C. The result for `CN1CC(c2cccc(OCc3ccc4ccccc4n3)c2)OC1=O` (stereo not drawn) reads 75 to 77 °C; that for `NC(=O)c1sc2nccc(N3CCN(c4ccccc4)CC3)c2c1N`, 250 to 252 °C; that for `NNc1ccc(S(=O)(=O)c2ccc(NN)cc2)cc1`, 179 to 183 °C.

Compound `COc1ccccc1-c1ccc(C(=O)O)cc1C` yielded a melting point of 160 to 162 °C. Compound `COc1cc2c(cc1Cl)C(=O)Cc1ccccc1S2` registered a melting point of 171 to 173 °C.

Take `O=C(Nc1ccccn1)Nc1cccc2c1C1CC3(CCN1C2=O)SCCS3` (stereo not drawn): the melting point worked out at 242 °C. The result for `CS(=O)(=O)c1ncc2n1-c1ccc(Cl)cc1C(c1ccccc1F)=[N+]([O-])C2` reads 219 to 220 °C.

`CC(=O)NCC1CCCc2cc(NS(=O)(=O)c3cccc(F)c3)ccc21` (stereo not drawn) showed a melting point of 136 to 137 °C. The compound `CC(C)N(C(N)=S)c1ccc2c(c1)OCO2` came in with a melting point of 149 to 151 °C. For the compound `CC(C)N(Cc1cccs1)C(=O)C12CC3CC(CC(C3)C1)C2`, the melting point lay within 156 to 158 °C.

In the case of `COc1nc2cc([N+](=O)[O-])c(C)c(C(=O)NCCC(=O)OC(C)(C)C)c2nc1OC`, the melting point lay in the range of 140 to 142 °C. For the compound `NC(=O)c1ncc(Cl)cc1F`, the melting point lay in the range of 162 to 164 °C. Next, `NC(=S)NN=C(CCC(=O)NCc1ccccc1)c1ccccc1`: 162 to 164 °C; `COC(=O)c1ccc(N=Cc2cccc(F)c2)cn1`: 111 to 114 °C.

For `O=C(O)c1cccc(P(c2ccccc2)c2ccccc2)n1`, the melting point came out at 122 °C. As to `O=C(C1CCCc2c1c1ccccc1n2Cc1ccccc1)N1CCCCC1` (stereo not drawn), the melting point lay within 249 to 252 °C.

`CN1CC[C@]2(c3ccccc3)CCCC[C@@]2(O)C1` (relative stereo) showed a melting point of 84 to 87 °C. The result for `N#Cc1c(C(=O)O)nn(-c2ccc(Cl)cc2Cl)c1-c1ccc(Cl)cc1` reads 132 to 137 °C; that for `O=C1NCCc2c(-c3cccnc3)[nH]c3cccc1c23`, 260 to 262 °C; that for `COc1c(OC2CCC3(CC2)OCC(C)(C)CO3)ccnc1C`, 90 °C. Next, `COc1cc(C(C)C)ccc1C1COc2c(C)c(C)c(Br)c(C)c21` (stereo not drawn): 102 to 103 °C. The result for `COc1cccc2c1CC(CC(=O)O)C(=O)C2` (stereo not drawn) reads 129 to 131 °C. `CCOC(=O)CN(CC(=O)OCC)C(=O)C(CCC(=O)O)CS(=O)(=O)c1ccc2ccccc2c1` (stereo not drawn) registered a melting point of 108 to 111 °C.

As for `N#C[C@@H]1CCCN1C(=O)CCl`, the melting point was 53 to 57 °C. The result for `O=C(O)CN1C(=O)C(=CC=Cc2ccccc2)SC1=S` reads over 217 °C; that for `COC(=O)CCSCc1ccc2oc(-c3ccc4ccc(Cl)cc4n3)cc2c1`, 96 to 103 °C. Next, `CN(C)C(=O)C=C(N(C(N)=O)c1cc(F)c(C#N)cc1F)C(F)(F)F`: 198 °C; `c1coc(Cn2c(NC3CCN(CCOc4nccs4)CC3)nc3ccccc32)c1`: 136 °C. Next, `CNS(=O)(=O)c1cc(OC)c(OC)c(C(=O)NCC2CCCN2CC2CC2)c1` (stereo not drawn): 110 to 112 °C; `CCOc1c(CC)ccnc1C(=O)c1[nH]c2cc(Cl)ccc2c1CC(=O)O`: 165 °C; `CC(=O)OC1CSC(Oc2ccc(-c3ccc(F)nc3)nc2Cl)C(OC(C)=O)C1OC(C)=O` (stereo not drawn): 226 °C. Consider `CCCC(=O)n1nc2c(c1NC)c(=O)n(CCC)c(=O)n2Cc1cccc(Cl)c1`, for which the melting point was in the range of 152 to 153 °C. Next, `CC(Cc1c[nH]c2ccccc12)(NC(=O)OC12CC3CC(CC(C3)C1)C2)C(=O)O` (racemic): 206 to 218 °C.

Regarding `Cc1c(F)cc(C(=N)N)c(Oc2ncccc2Oc2cccnc2)c1F`, the melting point was in the range of 213 to 214 °C. Next, `CC(C)(CO)Nc1cc(Cl)ccc1[N+](=O)[O-]`: 102 to 104 °C; `CC(=O)N(C)c1cccnc1S(N)(=O)=O`: 181 to 185 °C; `CC(C)(C)c1cc(C=C2CCN(CCO)C2=O)cc(C(C)(C)C)c1O`: 191 °C. Next, `CC(C)(C(=O)O)C1CCN(Cc2ccccc2)CC1`: 195 °C. The compound `CC1=CC(COC(c2ccccc2)(c2ccccc2)c2ccccc2)O[C@@H]1c1coc(C#N)c1N` (stereo partly drawn) displayed a melting point of 68 °C. The result for `COc1ccc2c(C(=S)N(C)CC(=O)O)cccc2c1SC(F)(F)F` reads 168 to 169 °C; that for `Nc1c(-c2ccc(C(F)(F)F)cc2F)nnn1Cc1ccc(O)cc1`, 168 to 170 °C. `Cc1nc(-c2ccncn2)cc(=O)[nH]1` came in with a melting point of 320 to 322 °C.

As to `CC1(C)Oc2ccc(OC(F)(F)F)cc2[C@@H](N2Cc3cccnc3C2=O)[C@@H]1O` (relative stereo), the melting point was 248 to 250 °C. Next, `COc1cccc(S(=O)(=O)N2CCc3cc(OCc4ccccc4)c(OC)cc3C2)c1`: 124 to 125 °C; `CC1CCN(C(=O)[C@H]2CC=CC[C@@H]2NC(=O)C(F)(F)F)CC1`: 169 to 170 °C; `O=C1NCC=NN1c1cc(Cl)c(Cc2ccc(C(O)c3ccc(Cl)nc3)cc2)c(Br)c1` (stereo not drawn): 167 to 169 °C. `CC(C)OC(=O)C1=C(O)c2ccccc2S(=O)(=O)N1C` yielded a melting point of 102 to 103 °C.
